Reference: patent US12193465B2, “Materials and methods for extending shelf-life of foods” (JP Laboratories, Inc., priority 2021, dated 2025)
Where a name gives a salt, the structure may show the parent alone. Read-outs that look alike come from different tables or passages of the source.

Legend:
[1] = system: fungus; assay: Fungus growth on treated foods stored in closed containers at room temperature;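 on Effectiveness on ginger: compared with untreated control ginger in closed containers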
Source text: (§1) Most of the foods changed color or texture.
Glass jars and bottles were also used. The containers were snap-closed or with a lid.
(§2) These bags were sealed with a heat sealer.
(§3) The assembly was shaken periodically.

[2] = system: green tomato, papaya, banana, mango, peppers, tindora; assay: Ripening of fruits and vegetables (delayed or expedited); conditions: for Spoilage Time - Sample (Expedited ripening): control 14+ days; for Ripening, green-to-yellow (or red) color-change: pre-dipping into 10% solution
Protocol: (§4) All studies were conducted at a room temperature of about 25° C. To determine the effectiveness of a shelf-life extender, a control sample which was untreated with any shelf-life extenders, was tested identical to the test samples. […] All studies in those Examples of Tables 1-6 were conducted in closed plastic or glass containers. Containers, such as plastic containers, without or with lids having holes can be used if it is advantageous to let excess moisture escape or to prevent condensation of moisture released by some produce.
(§5) For controlled exposure and a constant supply of a preservative to foods, sachets containing one or more drops of preservatives were used. Sachets were made by placing an appropriate amount of a preservative in a plastic bag containing a piece of paper and heat sealing the bag. The sachet bag materials used were Tyvek® for solid preservative, polyethylene, polyester and high barrier multilayer films were used for liquid preservatives. These bags were sealed with a heat sealer. The sachet was typically applied on one side of the container containing food.
(§6) A piece of paper napkin was taped inside a 100 microns thick polyethylene or polyester Ziploc bag. The size of the bag varied from ˜20 cm×30 cm to ˜60 cm×90 cm depended on the sample with sandwich bags up to gallon bags being exemplary. The paper napkin was wetted with 0.1-0.5 ml of a preservative or a mixture of preservatives. A tray of aluminum, stainless steel or glass containing the foods was placed inside the plastic (polyethylene, polyester and multilayer-laminated) bag and almost closed by locking the Ziploc. Air was blown with an air blower from the unclosed end until the bag was fully blown and then quickly closed tightly by locking the remaining Ziploc. If a preservative was a sublimable solid, it was placed in a petri dish and then placed inside the bag in the tray before blowing air. The exposure time was varied from five minutes to a day depending upon the food. […] The assembly was shaken periodically. After the predetermined time, the tray containing produce was removed from the bag, allowed to de-gas for 10-30 minutes in air and the produce was then placed in an appropriately sized container. Glass and stainless steel containers with lids were also often used.
(§7) A solution of one or more preservatives was prepared in a large (e.g., 2-10 liter) glass beaker or a jar. A sack containing the food was prepared by placing the food in a plastic mesh bag. The sack was placed in the solution of the preservative. A smaller glass beaker containing proper amount of water was place over the package to keep the sack soaked in the solution of the preservative during the treatment. The solution was stirred either with a plastic spatula or with a magnet over a magnetic stirrer. After treatment, the mesh sack was removed, the produce was washed in a tray with running water, strained and air dried at 30° C. in an air blowing oven for about 5-10 minutes, while shaking the tray or turning the food periodically followed by placing the sample in an appropriate container.
The untreated (control sample) and treated food were placed in proper sized plastic containers and the containers were tightly closed.
The following major criteria were used for determining spoilage of foods: growth of fungus, color change, unpleasant odor, wilting, firmness or shriveling, change of state (liquid to solid or vice versa), and sprouting or germination Example 10: Sources of food.

[3] = General shelf-life extension of foods (spoilage criteria of Example 9); conditions: for Effectiveness for controlling one or more spoilage criteria: variety of foods
Protocol: as §4
(§8) Food exposed to preservatives or by a sachet was placed in typically polystyrene or acrylic containers depending upon the size and number of food items. Glass jars and bottles were also used. The containers were snap-closed or with a lid. The containers were purchased mainly from Amazon or Webstaurant.com store. When needed, plastic containers with holes or without lids were used.
as §5, §6, §7
(§9) The food was placed in mesh trays and sprayed with an aqueous solution (1-10%) of a preservative while shaking the tray or turning the food. The solution was allowed to drain from the tray and the food was air dried in an air blowing oven at 30° C. for about 5-10 minutes, while shaking the tray or turning food periodically followed by placing the sample in an appropriate container.

[4] = Color change / browning / yellowing of foods (keeping produce green longer); conditions: for Spoilage Time - Sample (Color change): 2% in water sprayed
Protocol: as §4, §8, §5, §6, §7, §9

[5] = system: grains, legumes, potatoes, garlic; assay: Germination / sprouting of grains, legumes and tubers; conditions: for Spoilage Time - Sample: Example 111, Germination, Mixed Legumes, 64 hrs P-E, control 3 days
Source text: as §2, §3

[6] = system: avocado; assay: Softening / rotten inside (spoiled flesh) of avocado
Source text: as §1, §3

[7] = Color loss of meat and fish; conditions: for Spoilage Time - Sample (Color loss): Sachet, control 2 days
Source text: as §1, §2

[8] = system: parval, methi, coriander, radish, guar; assay: Shriveling / wilting / dehydration / becoming wet of produce; conditions: for Spoilage Time - Sample (Dehydration): 0.08 hr soaking in 22% solution in water
Source text: as §1, §3

[9] = Curdling / cream / solidification of milk; conditions: pasteurized whole and fat-free milk;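 further: compared with untreated control milk in closed containers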
Source text: as §1

CCCCOCCO [2-butoxyethanol, 2-Butoxyethanol]
Fungus growth ([1]; 312 h): > 29 days
Spoilage Time - Sample (Fungus) ([1]; Red tomato, 2 hrs P-E, control 13 days): 29 days
Spoilage Time - Sample (Expedited ripening) ([2]; Mango, Sachet): 8 days
Effectiveness for controlling one or more spoilage criteria [3]: effective to a greater or lesser extent

CCOCCO [2-ethoxyethanol, 2-Ethoxyethanol]
Spoilage Time - Sample (Ripening) ([2]; Mango, 2 hrs P-E, control 16 days): 23 days

O=C1C=CCCC1 [2CY, 2-Cyclohexen-1-one]
Effectiveness on ginger ([1]; ginger, pre-exposure and sachet method): found effective
Spoilage Time - Sample ([4]; Example 114, Yellowing, Coriander, 1 hr P-E, control 10 days): 10+ days
Spoilage Time - Sample ([4]; Example 114, Yellowing, Coriander, 1 hr P-E, control 10 days, listed as 2-cyclohexen-1-one): significantly delayed
Spoilage Time - Sample [5]: 3 days
Spoilage Time - Sample ([5]; listed as 2-cyclohexen-1-one): delayed or prevented
Spoilage Time - Sample ([2]; Example 112, Ripeness, Papaya, 2 hrs P-E, control 7 days): 11 days
Spoilage Time - Sample ([2]; Example 112, Ripeness, Papaya, 2 hrs P-E, control 7 days, listed as 2-cyclohexen-1-one): at least 11 days
Effectiveness in delaying the ripening of tomatoes ([2]; unsaturated versus saturated homolog): more effective
Spoilage Time - Sample ([6]; Example 113, Softening, Avocado, 2 hrs P-E, control 2 days): 2 days
Spoiling of the flesh with development of fungus ([6]; avocados, Examples 77, 78, 107, 108, 113 & 171): significantly delayed
Shelf-life of flowery vegetables [3]: extended shelf-life
Shelf-life of shelled and unshelled peanuts ([3]; peanuts): extended
Effectiveness for controlling one or more spoilage criteria [3]: effective to a greater or lesser extent

NCCN [ED, Ethylenediamine]
Spoilage Time - Sample ([4]; Example 131, Color change, Parsley, 0.25 hr P-E, control 7 days): 22+ days
Spoilage Time - Sample ([4]; Example 131, Color change, Parsley, 0.25 hr P-E, control 7 days, listed as ethylenediamine): significantly delayed
Spoilage Time - Sample ([2]; Example 132, Ripening, Banana, 0.25 hr P-E, control 18 days): 21+ days
Spoilage Time - Sample ([2]; Example 132, Ripening, Banana, 0.25 hr P-E, control 18 days, listed as ethylenediamine): > 21 days
Effectiveness for controlling one or more spoilage criteria [3]: effective to a greater or lesser extent

N.NC(=O)O [ammonium carbamate, Ammonium carbamate]
Spoilage Time - Sample (Fungus) [1]: 80+ days
Loss of pinkish fleshy color ([7]; Example 143, ground beef, sachet, 3rd day, control within 2 days): lost less fleshy pinkish color
Shelf-life of flowery vegetables [3]: extended shelf-life

C[N+](C)(C)CCO.[Cl-] [choline chloride, Choline chloride]
Spoilage Time - Sample (Color loss) ([4]; Broccoli, 1 hr soaking in 5% solution in water, control 1 day): 8 days
Remaining green ([4]; Example 149, Bok choy, pre-dipped into 22% solution): remained green longer
Color change ([4]; Example 150, parsley, pre-dipping/rinsing in 22% solution): delayed the color change
Color change from green-to-yellow ([4]; Example 152, broccoli, dipped into 5% solution): significantly delayed
Sprouting ([5]; Example 154, potatoes, pre-dipping into 10% solution): either prevented or significantly delayed
Spoilage Time - Sample (Sprouting) ([5]; Fingerling Potatoes, 2 hrs soaking in 10% solution in water, control 10 days): 16 days
Ripening, green-to-yellow (or red) color-change ([2]; Example 151, green chili peppers): delayed
Ripening, green-to-yellow (or red) color-change ([2]; Example 153, Jalapeno peppers): delayed
Spoilage Time - Sample (Ripening) ([2]; Jalapeño Peppers, 1 hr soaking in 10% solution in water, control 3 days): 8 days
Spoilage Time - Sample (Ripening) ([2]; Peppers, 2 hrs soaking in 10% solution in water, control 6 days): 13 days
Spoilage Time - Sample (Dehydration) ([8]; Bok Choy, control 7 days): 11 days
Spoilage Time - Sample (Dehydration) ([8]; Parsley, control 7 days): 11 days

COC(=O)OC [dimethyl carbonate, Dimethyl carbonate]
Expedited ripening ([2]; Example 155, mango, control around 14 days): 8 days
Spoilage Time - Sample (Expedited ripening) ([2]; Mango, Sachet): 8 days
Effectiveness for controlling one or more spoilage criteria [3]: effective to a greater or lesser extent

COC(=O)/C=C\C(=O)OC [dimethyl maleate, Dimethyl maleate]
Ripening ([2]; Example 156, mangoes, sachet, control 16 days): 23 days
Spoilage Time - Sample (Ripening) ([2]; Mango, Sachet, control 16 days): 23 days

O=C(O)C(O)c1ccccc1 (stereo not shown) [mandelic acid, Mandelic Acid]
Spoilage of coriander ([4]; Example 161, soaking in 1% solution): significantly delayed
Spoilage Time - Sample (Wet) ([8]; Coriander, 0.5 hr soaking in 1% solution in water, control 7 days): 7+ days

OB(O)c1ccccc1 [phenylboronic acid, Phenylboronic acid]
Spoilage Time - Sample (Fungus) ([1]; Blueberry, 2% in water sprayed, control 6 days): 10+ days
Spoilage Time - Sample (Fungus) ([1]; Strawberry, 2% in water sprayed, control 6 days): 10+ days
Fungus growth ([1]; strawberries, raspberries, blackberries and lychee): either prevented or significantly delayed
Spoilage Time - Sample (Color change) ([4]; Broccoli, control 4 days): 28 days
Color change from green to brown on the skin ([4]; Example 137, limes, sprayed with 2% solution in water, room temperature, control 6 days): > 10 days
Spoilage Time - Sample (Color change) ([4]; Lime, control 6 days): 6+ days
Spoilage Time - Sample (Color change) ([4]; Methi, control 4 days): 28 days
Curdling of milk [9]: delayed curdling
Germination/sprouting ([5]; Example 140, grains, mainly unhusked rice and soft white wheat, 2% spray, control 2 days): > 10 days
Spoilage Time - Sample (Germination) ([5]; Grains (mixed legumes and soft white wheat), 2% in water sprayed, control 2 days): 7+ days

(−)-Menthone
Dehydration/wilting ([8]; Example 162, radish, vapor, control 5 days): less dehydration/wilting
Spoilage Time - Sample (Shriveling) ([8]; Radish, 2 hrs P-E, control 5 days): 5 days
Shelf-life of flowery vegetables [3]: extended shelf-life

Ammonium carbonate
Spoilage Time - Sample (Color loss) ([7]; Ground Beef): 2+ days
Spoilage Time - Sample (Color loss) ([7]; Ground Chicken): 2+ days
Spoilage Time - Sample (Color loss) ([7]; Tilapia fish fillet): 2+ days
Improvements with meat and fish ([7]; meat and fish): demonstrated improvements
Shelf-life of flowery vegetables [3]: extended shelf-life
Effectiveness as shelf-life extender ([3]; tofu): effective
